We go through 24 compounds from US12668586B2, “AhR inhibitor, use thereof, and preparation method therefor” (CHONGQING PHARSCIN INNOBIO CO., LTD., priority 2021, dated 2026).

This assay has as its target T1, AhR (Homo sapiens, UniProt P35869).
T1 sequence (P35869 11-848): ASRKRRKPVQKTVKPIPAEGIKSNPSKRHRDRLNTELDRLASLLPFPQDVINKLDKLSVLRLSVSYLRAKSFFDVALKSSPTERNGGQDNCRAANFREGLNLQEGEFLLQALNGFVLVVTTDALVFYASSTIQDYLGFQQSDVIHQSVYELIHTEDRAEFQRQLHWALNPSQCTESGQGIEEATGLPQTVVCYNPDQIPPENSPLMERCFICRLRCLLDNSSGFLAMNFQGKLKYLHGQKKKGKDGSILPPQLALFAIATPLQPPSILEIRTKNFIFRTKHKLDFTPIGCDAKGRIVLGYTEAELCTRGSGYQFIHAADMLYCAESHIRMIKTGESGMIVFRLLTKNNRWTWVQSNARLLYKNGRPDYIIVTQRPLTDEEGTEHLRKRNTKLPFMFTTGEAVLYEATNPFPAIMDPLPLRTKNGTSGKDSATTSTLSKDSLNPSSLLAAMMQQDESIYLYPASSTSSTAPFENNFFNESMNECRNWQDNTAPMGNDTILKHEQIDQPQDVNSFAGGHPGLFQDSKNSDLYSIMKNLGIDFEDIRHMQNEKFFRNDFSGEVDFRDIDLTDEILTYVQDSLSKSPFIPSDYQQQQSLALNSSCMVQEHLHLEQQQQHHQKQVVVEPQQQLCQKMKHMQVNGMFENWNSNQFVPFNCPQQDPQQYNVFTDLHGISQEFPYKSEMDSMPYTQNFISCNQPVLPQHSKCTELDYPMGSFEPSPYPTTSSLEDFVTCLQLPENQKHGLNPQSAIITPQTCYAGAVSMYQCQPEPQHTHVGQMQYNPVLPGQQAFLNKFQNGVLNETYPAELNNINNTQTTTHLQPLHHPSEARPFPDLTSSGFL
Put plainly: AhR inhibitory activity experiment, in vitro assay 1: HepG2-Lucia AhR cells, Lucia luciferase reporter (QUANTI-Luc). The note with it: 24 hours incubation at 37° C., Lucia luciferase in supernatant, read-out: AhR inhibitory activity C50. The class given is cell-based. As to the method: Test Example: AhR Inhibitory Activity Experiment
When QUANTI-Luc™ (InvivoGen Company) testing reagents are used, AhR gene signaling pathways can be studied by monitoring the activity of Lucia luciferase in the cell culture supernatant.
In Vitro Assay 1: Assay on Inhibitory Activity in Human Cell Lines
Adherent cell layers of HepG2-Lucia™ AhR cells in a logarithmic growth phase were washed with PBS, and then the cells were isolated with trypsin. The isolated cells were centrifuged at 1000 RPM for 5 minutes, the supernatant was removed, and the cells were re-suspended with a test medium by 1.25×10^5 cells/ml.
20,000 cells were added to each well of a 96-well plate, and the 96-well plate was placed in a CO2 incubator to incubate the cells at 37° C. for 24 hours in the absence (negative control) or presence of test compounds with gradient increasing concentrations (typical dilutions: 169 pmol/L, 0.5 nmol/L, 1.5 nmol/L; 4.6 nmol/L, 13.7 nmol/L, 41 nmol/L, 123 nmol/L, 370 nmol/L, 1.1 μmol/L, 3.3 μmol/L and 10 μmol/L, in triplicate).
The 20 μl/well cell supernatant was transferred to a black 96-well plate, a 50 μL/well QUANTI-Luc™ solution was added, and the activity of Lucia luciferase was measured on a multifunctional ELISA reader Spark 10 M (Tecan Company) through a QUANTI-Luc™ luciferase assay system.
Experimental results are shown in Table 1, wherein for IC50 values, “++++” represents IC50<0.05 μM; “+++” represents IC50 between 0.05 μM and 0.2 μM; “++” represents IC50 between 0.2 μM and 1.0 μM; and “+” represents IC50>1.0 μM.
For `C[C@H](NC(=O)c1cc(-c2ccc(Cl)cc2)nc(-c2cnn(C)c2)n1)c1ccnc(C(F)(F)F)c1` [Compound 5, (S)-6-(4-chlorophenyl)-N-(1-(2-trifluoromethyl-4-pyridine)ethyl)-2-(1-methyl-1H-pyrazol-4-yl)pyrimidine-4-formamide], the IC50 was below 50 nM.
The value for `Cn1cc(-c2nc(C(=O)N[C@H](c3ccc(F)cc3)C3CC3)cc(-c3ccc(Cl)cc3)n2)cn1` [Compound 19, (S)-6-(4-chlorophenyl)-N-(1-cyclopropyl(4-fluorophenyl))-2-(1-methyl-1H-pyrazol-4-yl)pyrimidine-4-formamide] was below 50 nM; that for `Cn1cc(-c2nc(C(=O)N[C@H]3CCc4ncccc43)cc(-c3ccc(OC(F)(F)F)cc3)n2)cn1` [Compound 61, (S)-6-(4-trifluoromethoxyphenyl)-N-((S)-6,7-dihydro-5H-cyclopentano[B]pyridin-5-yl)-2-(1-methyl-1H-pyrazol-4-yl)pyrimidine-4-formamide] was above 1000 nM; that for `C[C@H](NC(=O)c1cc(-c2ccc(Cl)cc2)nc(-c2cnn(C)c2)n1)c1cnn(C)c1` [Compound 14, (S)-6-(4-chlorophenyl)-N-(1-(1-methyl-1H-pyrazol-4-yl)ethyl)-2-(1-methyl-1H-pyrazol-4-yl)pyrimidine-4-formamide] was below 50 nM.
The figure for `C[C@H](NC(=O)c1cc(-c2ccc(F)cc2)nc(-c2cnn(C)c2)n1)c1ccnc(F)c1` [Compound 47, (S)-6-(4-fluorophenyl)-N-(1-(2-fluoro-4-pyridine)ethyl)-2-(1-methylpyrazol-4-yl)pyrimidine-4-formamide] is 50 to 200 nM.
The value for `C[C@H](NC(=O)c1cc(-c2ccc(C(F)(F)F)cc2)nc(-c2cnn(C)c2)n1)c1ccc(F)c(F)c1` [Compound 32, (S)-6-(4-trifluoromethylphenyl)-N-(1-(3,4-difluorophenyl)ethyl)-2-(1-methyl-1H-pyrazol-4-yl)pyrimidine-4-formamide] was below 50 nM; that for `O=C(N[C@H]1CCc2ncccc21)c1cc(-c2ccc(OC(F)(F)F)cc2)nc(-c2cccnc2)n1` [Compound 27, (S)-6-(4-trifluoromethoxyphenyl)-N-((S)-6,7-dihydro-5H-cyclopentano[B]pyridin-5-yl)-2-(3-pyridyl)pyrimidine-4-formamide] was below 50 nM; that for `C[C@H](NC(=O)c1cc(-c2ccc(OC(F)(F)F)cc2)nc(-c2cnn(C)c2)n1)c1ccnc(F)c1` [Compound 34, (S)-6-(4-trifluoromethoxyphenyl)-N-(1-(2-fluoro-4-pyridine)ethyl)-2-(1-methyl-1H-pyrazol-4-yl)pyrimidine-4-formamide] was below 50 nM.
For the compound `Cn1cc(-c2nc(C(=O)N[C@H]3CCc4ccc(F)cc43)cc(-c3ccc(Cl)cc3)n2)cn1` [Compound 21, (S)-6-(4-chlorophenyl)-N-((S)-(6-fluoro-2,3-dihydro)-(−)-1-yl-2-indene)-2-(1-methyl-1H-pyrazol-4-yl)pyrimidine-4-formamide], the IC50 lay in the range of 50 to 200 nM.
On to `C[C@H](NC(=O)c1cc(-c2ccc(Cl)cc2)nc(-c2ccnc(F)c2)n1)c1ccnc(F)c1` [Compound 38, (S)-6-(4-chlorophenyl)-N-(1-(2-fluoro-4-pyridine)ethyl)-2-(2-fluoropyridin-4-yl)pyrimidine-4-formamide], for which the IC50 was below 50 nM.
For `Cn1cc(-c2nc(C(=O)NC3(C)CCN(CC(N)=O)CC3)cc(-c3ccc(Cl)cc3)n2)cn1` [Compound 45, 6-(4-chlorophenyl)-N-(2-(4-yl-4-methylpiperidin-1-yl)acetamide)-2-(1-methyl-1H-pyrazol-4-yl)pyrimidine-4-formamide], the IC50 is below 50 nM.
The figure for `Cn1cc(-c2nc(C(=O)N[C@H]3CCc4cc(F)c(F)cc43)cc(-c3ccc(Cl)cc3)n2)cn1` [Compound 20, (S)-6-(4-chlorophenyl)-N-((S)-(5,6-difluoro-2,3-dihydro)-(−)-1-yl-2-indene)-2-(1-methyl-1H-pyrazol-4-yl)pyrimidine-4-formamide] is 50 to 200 nM; for `Cn1cc(-c2nc(C(=O)NCCc3c[nH]c4ccccc34)cc(-c3ccc(Cl)cc3)n2)cn1` [Compound 6, (S)-6-(4-chlorophenyl)-N-(2-(1H-indol-3-yl)ethyl)-2-(1-methyl-1H-pyrazol-4-yl)pyrimidine-4-formamide] it is above 1000 nM; for `C[C@H](NC(=O)c1cc(-c2ccc(Cl)cc2)nc(-c2cnn(C)c2)n1)c1ccc(F)c(Cl)c1` [Compound 31, (S)-6-(4-chlorophenyl)-N-(1-(3-chloro-4-fluorophenyl)ethyl)-2-(1-methyl-1H-pyrazol-4-yl)pyrimidine-4-formamide] it is below 50 nM.
Take `C[C@H](NC(=O)c1cc(-c2ccc(Cl)cc2)nc(-c2cccnc2)n1)c1ccnc(F)c1` [Compound 35, (S)-6-(4-chlorophenyl)-N-(1-(2-fluoro-4-pyridine)ethyl)-2-(3-pyridin-4-yl)pyrimidine-4-formamide]: the IC50 is below 50 nM.
The value for `C[C@H](NC(=O)c1cc(-c2ccnc(F)c2)nc(-c2cnn(C)c2)n1)c1ccnc(F)c1` [Compound 49, (S)-6-(2-fluoro-4-pyridine)-N-(1-(2-fluoro-4-pyridine)ethyl)-2-(1-methyl-1H-pyrazol-4-yl)pyrimidine-4-formamide] was above 1000 nM; that for `Cn1cc(-c2nc(C(=O)NC3(C)CCN(C(=O)C4CC4)CC3)cc(-c3ccc(Cl)cc3)n2)cn1` [Compound 43, 6-(4-chlorophenyl)-N-((4-yl-4-methylpiperidin-1-yl)(cyclopropyl)ketone)-2-(1-methyl-1H-pyrazol-4-yl)pyrimidine-4-formamide] was below 50 nM.
The value for `C[C@H](NC(=O)c1cc(-c2ccc(C(F)(F)F)cc2)nc(-c2cnn(C)c2)n1)c1ccnc(F)c1` [Compound 33, (S)-6-(4-trifluoromethylphenyl)-N-(1-(2-fluoro-4-pyridine)ethyl)-2-(1-methyl-1H-pyrazol-4-yl)pyrimidine-4-formamide] was below 50 nM; that for `COc1cc([C@H](C)NC(=O)c2cc(-c3ccc(Cl)cc3)nc(-c3cnn(C)c3)n2)ccc1F` [Compound 30, (S)-6-(4-chlorophenyl)-N-(1-(3-methoxy-4-fluorophenyl)ethyl)-2-(1-methyl-1H-pyrazol-4-yl)pyrimidine-4-formamide] was below 50 nM; that for `Cn1cc(-c2nc(C(=O)N[C@H]3CCc4ncccc43)cc(-c3ccc(C(F)(F)F)cc3)n2)cn1` [Compound 56, (S)-6-(4-trifluoromethylphenyl)-N-((S)-6,7-dihydro-5H-cyclopentano[B]pyridin-5-yl)-2-(1-methyl-1H-pyrazol-4-yl)pyrimidine-4-formamide] was below 50 nM.
The figure for `C[C@H](NC(=O)c1cc(-c2ccc(Cl)cc2)nc(-c2cnn(C)c2)n1)c1ccnc(Cl)c1` [Compound 9, (S)-6-(4-chlorophenyl)-N-(1-(2-chloro-4-pyridine)ethyl)-2-(1-methyl-1H-pyrazol-4-yl)pyrimidine-4-formamide] is below 50 nM.
For `C[C@H](NC(=O)c1cc(-c2ccc(Cl)cc2)nc(-c2cnn(C)c2)n1)c1ccnc(C#N)c1` [Compound 12, (S)-6-(4-chlorophenyl)-N-(1-(2-cyano-4-pyridine)ethyl)-2-(1-methyl-1H-pyrazol-4-yl)pyrimidine-4-formamide], the IC50 is below 50 nM.
The figure for `C[C@H](NC(=O)c1cc(-c2ccc(Cl)cc2)nc(-c2ccnc(N)c2)n1)c1ccnc(F)c1` [Compound 37, (S)-6-(4-chlorophenyl)-N-(1-(2-fluoro-4-pyridine)ethyl)-2-(2-aminopyridin-4-yl)pyrimidine-4-formamide] is below 50 nM; for `CNC(=O)c1ccc([C@H](C)NC(=O)c2cc(-c3ccc(Cl)cc3)nc(-c3cnn(C)c3)n2)cc1F` [Compound 52, (S)-6-(4-chlorophenyl)-N-(1-(3-fluoro-4-(methylaminoformyl)phenyl)ethyl)-2-(1-methyl-1H-pyrazol-4-yl)pyrimidine-4-formamide] it is below 50 nM.
